Measured values reported in patent US12595503B2, “Reference dataset-based, spectrometric characterization of cell substrates using sub-libraries” (priority 2021, dated 2026).

Test system: E. coli
Experiment: MALDI-TOF (MALDI Biotyper) growth-based resistance/susceptibility determination of the test cell substrate in CTX-containing Mueller-Hinton nutrient medium
Set-up: species or system Escherichia coli
Settings: CTX 1 μg/mL; for logarithm of the similarity measure (log(score)), best match of second preparation: 4 h incubation
From the text: As proof of principle for the feasibility of the disclosed procedure, a cefotaxime-susceptible E. coli was selected as the test cell substrate and applied to the determination of a characteristic of the microorganism under investigation using a MALDI Biotyper® system. For this purpose, the resistance/susceptibility of the test cell substrate to a growth-influencing substance, in this example the antibiotic cefotaxime (CTX), was investigated using a prior art method and the method disclosed herein.
The test cell substrate was incubated in nutrient medium, Mueller-Hinton nutrient medium (first preparation—FIG. 2), and the same nutrient medium containing CTX at a concentration of 1 μg/mL (second preparation—FIGS. 3 and 4). The first preparation served as a growth control. The second preparation was used to determine the resistance/susceptibility of the test cell substrate to CTX.
To create the preparations, a large volume (stock suspension) of a cell suspension, here about 12 mL, otherwise regularly 10 to 50 mL, of the test cell substrate was prepared in Mueller-Hinton nutrient medium, a liquid nutrient medium. The concentration of the test cell substrate in the stock suspension was determined densitometrically in order to use an appropriate and equal amount of the test cell substrate for the first and second preparations. A small volume was taken from this stock suspension for the first preparation and transferred to a well of a microtiter plate. Since the first preparation was designed as a growth control, no antibiotic was present in the well. Simultaneously, for a second preparation, the same volume of stock suspension was removed and transferred to another well of the microtiter plate, thereby dissolving the antibiotic CTX, which was present in dried form in the well of the second preparation, for a final concentration of 1 μg/mL. The microtiter plate was then agitated to ensure complete dissolution and homogeneous distribution of the antibiotic in the cavity of the second preparation. Further preparations in the form of a concentration-dilution series for determining of a minimum inhibitory concentration (MIC) of the antibiotic CTX is easy to generate by selectively dissolving the dried CTX in additional wells of the microtiter plate. For example, a CTX concentration of 0.5 μg/mL can be set in the Mueller-Hinton nutrient medium in a third well for another preparation, and a CTX concentration of 2 μg/mL can be set in a fourth well for yet another preparation. Thus, the dilution series can comprise the CTX concentrations 0.5, 1 and 2 μg/mL, while additional dilution steps, e.g., 0.25 or 4 μg/mL can be included. Such a dilution series can also be performed in dilution steps of different sizes of the CTX concentration. […]

## CO/N=C(\C(=O)N[C@@H]1C(=O)N2C(C(=O)O)=C(COC(C)=O)CS[C@H]12)c1csc(N)n1 [CTX, cefotaxime]
Compared with entire reference library (prior art method), best match Citrobacter farmeri, >=1.7 read as growth/resistance
  logarithm of the similarity measure (log(score)), best match of second preparation: 1.83
Compared with first sub-library (five best E. coli reference datasets), <1.7 read as no growth/susceptibility
  logarithm of the similarity measure (log(score)), best match of second preparation: 1.13
Compared with entire reference library (prior art method), patent calls this result false-positive
  property resistance or susceptibility to CTX: CTX-resistant
Compared with first sub-library (method of the invention)
  property resistance or susceptibility to CTX: CTX-susceptible
